pEC50: −log10 of the molar value.
How the values were obtained:
HIV-1 HXB2 Y181C variant = assay: MT-4 antiviral cytopathic effect assay, HXB2-Y181C; format: cell-based
Method: (§1) The prepared compounds were tested for their anti-HIV-1 activity (Table 1). A viral cytopathic effect assay in MT-4 cells with HIV-1 IIIB virus was used to determine compound potency (EC50, 50% cell viability) in protecting virus induced cell killing. Compound cytotoxicity was assessed in MT-4 cells in the absence of virus (CC50, 50% cytotoxicity). […] ETV contains bromo and amino substitutions on the DAPY core. […] Likely, with the smaller cyano arm I in 1, 3, and 5, the cores could be further elaborated to optimize the compound position in the pocket and to improve potency.
(§2) Compounds were tested in a high-throughput 384-well assay format for their ability to inhibit the virus replication-induced cytopathic effect in MT-4 cell cultures acutely infected with HIV-1 (IIIB strain), HXB2, HXB2-K103N, and HXB2-Y181C. Compounds were serially diluted (1:3) in DMSO on 384-well polypropylene plates and further diluted 200-fold into complete RPMI media (10% FBS, 1% P/S) using Biotek Micro Flow and an Agilent ECHO acoustic dispenser. Each plate contained up to eight test compounds, with negative (no drug control) and 5 μM AZT positive controls. MT-4 cells were further diluted in complete RPMI media and added to each plate using a Micro-Flo dispenser. After five days of incubation in a humidified and temperature-controlled incubator (37 °C), Cell Titer Glo (Promega) was added to the assay plates to quantify the amount of […]. EC50 and CC50 values were defined as the compound concentration that causes a 50% decrease in luminescence signal and were calculated using a sigmoidal dose-response model to generate curve fits.

[1] = Predicted clearance in human liver microsomes; format: in vitro ADME; details: pH 7.4, 1 μM compound, read-out: HLM CLint, pred (converted)
Method: Next, microsome stability was profiled in purified human liver microsomes (HLM).
Metabolic stability of compounds was assessed using HLM (Corning cat. 457117).[52] In this assay, 10 nL compounds at a concentration of 1 mM in 100% DMSO are dispensed into 384-well polypropylene plates using the Echo 550 acoustic liquid dispenser (Labcyte). Each plate contains 384 wells with a single test compound in each well.
A solution of HLM at 2 mg/mL in 100 mM K2HPO4/KH2PO4 pH 7.4 with 0.0225 mg/mL Alamethicin from Trichoderma viride (Sigma-Aldrich cat. A4665-10MG) was incubated on ice for 15 min. 5 μL of this solution was added to individual wells following 15 min incubation at room temperature; and supplemented with 5 μL NADPH Regenerating Solution of cofactors (Corning Gentest UGT Reaction Mix solutions A and B, cat. 451200 and 451220) containing 100 mM K2HPO4/KH2PO4 pH 7.4, 2.6 mM NADP^+, 6.6 mM glucose-6-phosphate, 6.6 mM MgCl2, 0.8 U/mL glucose-6-phosphate dehydrogenase, 0.1 mM sodium citrate, and 6.8 mM uridine diphosphate-glucuronic acid. The final concentration of analyte compounds at the beginning of the reactions was 1 μM. The reactions were incubated at 37 °C, and time points of 0, 5, 15, 30, 40, 50, 60, and 70 min were collected for further analysis. Background data were collected using reactions without analyte compounds.
Upon collection of the reaction time points, samples were quenched at the set time points with 30 μL of a solution of 72% acetonitrile, 8% methanol, 0.1% formic acid, 19.9% water, and labetalol as an internal standard (IS) at a concentration of 650 nM. Reaction plates were span in a centrifuge at a speed of 4000 rcf for 30 min and 4 °C, following a dilution of the 10 μL quenched reaction into 40 μL de-ionized water, yielding assay plates.
Samples were analyzed by a solid-phase extraction coupled with a quadrupole time-of-flight mass spectrometer, using an Agilent QToF 6530 RapidFire 360 system with C4 type A solid state cartridges. Analysis was performed in either positive or negative ionization modes. Mobile phases contained 0.1% formic acid in water for loading analytes onto solid state extraction cartridges, and 0.1% formic acid in acetonitrile for elution into the mass spectrometer in positive ionization mode, or 0.1% acetic acid in water for loading and 0.1% acetic acid in acetonitrile for extraction in negative ionization mode. Peak-area ratios of integrated counts for individual compounds to IS were plotted as a semi-logarithmic chart of log versus time. Initial, linear portion of decay was fitted to a linear regression equation to derive the half-time of a compound decay.
Pharmacological parameters for an analyte compound metabolism were calculated using the equations described in Table S2.
Table S2. Pharmacological parameters for an analyte compound metabolism were
calculated using the following equations:
Intrinsic Clearance (in Cl = ln 2
int, in vitro T1/2 ∗ Conc
Intrinsic Clearance Cl = Clint, in vitro ∗ Liver Mass ∗ Yield
Predicted Hepatic Cl = Clint ∗ QH
QH (Hepatic Blood Flow) = 1.3 L/hr/kg

HIV-1 HXB2 K103N variant = assay: MT-4 antiviral cytopathic effect assay, HXB2-K103N; format: cell-based
Method: as §1, §2

[2] = MDCK permeability assay (A to B); format: in vitro ADME, Canine; details: dog, MDCK
Text: Compounds were further tested in a Madin–Darby Canine Kidney (MDCK) assay to evaluate their potential for oral absorption. […] Additionally, there was no trend for better permeability when comparing arm I versus arm II when matched with the same core. The size of the B ring had the greatest influence on Papp with the trend being five-membered > six-membered > seven-membered rings (Table 1).
cMdr1-KO cells were maintained in Dulbecco’s modified Eagle’s medium (DMEM) with sodium pyruvate and GlutaMax, supplemented with 1% Pen/Strep and 10% fetal bovine serum in an incubator set at 37 °C, 90% humidity, and 5% CO2. MDCKII- cMdr1-KO cells were grown to confluence over 3 days on 96-well PET plates with 1 μm pore size, polyester membrane (Corning 3392). Experiments were run using HBSS donor buffer from Invitrogen containing an additional 10 mM HEPES, 15 mM glucose, and 0.1% BSA adjusted to pH 7.4. The receiver well had HBSS buffer supplemented with 1% BSA, 10 mM HEPES, 15 mM glucose, and the pH was adjusted to 7.4. TEER values were read to test membrane integrity at the beginning of the assay. The experiment was started by the addition of dosing solutions containing test compounds. Samples were taken from the donor compartment at 0/120 min and from the receiver compartment at 120 min. Each compound was tested in two separate replicate wells. All samples were immediately collected in a 72:8:20 MeCN/MeOH:H2O mix to precipitate protein and stabilize the test compounds. Cells were dosed on the apical side to determine forward (A to B) permeability. To test for non-specific binding and compound instability, the total amount of drug was quantified at the end of the experiment and compared to the material present in the original dosing solution as a percentage of recovery. Samples were analyzed by RF-QToF.

[3] = preliminary biological data, in words
[4] = supplement CSV, fold change vs HXB2

Q: With `Cc1cc(C#N)cc(C)c1N1CC(=O)Nc2cnc(Nc3ccc(C#N)cc3)nc21` [Compound 3, 4-(2-((4-Cyanophenyl)amino)-6-oxo-6,7-dihydropteridin-8(5H)-yl)-3,5-dimethylbenzonitrile] as the compound, how does the pEC50 (HIV-1 HXB2 Y181C variant; Human immunodeficiency virus 1, HXB2, read-out: EC50 Y181C) read?
A: Its pEC50 is 7.52.

Q: What about the “Y181C (FC)” value (HIV-1 HXB2 Y181C variant; fold change: ratio of potency against HXB2 Y181C and parental HXB2) of the same compound?
A: The value was 3.7.

Q: What about the “potency against Y181C mutated strain” value (HIV-1 HXB2 Y181C variant; [3]) of the same compound?
A: The value was “high potency”.

Q: And the “Y181C (FC)” value (HIV-1 HXB2 Y181C variant; [4])?
A: The value was 3.7.

Q: What about the CLint scaled at 1.167 h, 1 µM [1] of the same compound?
A: Its CLint scaled at 1.167 h, 1 µM is 18.3 mL/min/kg.

Q: And the pEC50 (HIV-1 HXB2 K103N variant; Human immunodeficiency virus 1, HXB2, read-out: EC50 K103N)?
A: Its pEC50 is 7.34.

Q: And the “K103N (FC)” value (HIV-1 HXB2 K103N variant; fold change: ratio of potency against HXB2 K103N and parental HXB2)?
A: Its value is 5.6.

Q: And the “potency against K103N mutated strain” value (HIV-1 HXB2 K103N variant; [3])?
A: The value was “high potency”.

Q: What about the “K103N (FC)” value (HIV-1 HXB2 K103N variant; [4]) of the same compound?
A: The value was 5.6.

Q: What about the Papp A→B at 120 min ([2]; supplement CSV) of the same compound?
A: Its Papp A→B at 120 min is 4.1 ×10⁻⁶ cm/s.

Q: And the Papp A→B at 120 min ([2]; apparent permeability coefficient, A to B, pH 7.4)?
A: Its Papp A→B at 120 min is 4.1 ×10⁻⁶ cm/s.
